Measurements taken from paper PMC5654082 (Malaria Journal, 2017).
Where two headings read alike, the source gives them in different places. Marks after values point to notes of the source that are not given here.

What was measured:
OCT1 [1] = tested on: OCT1; parameters: method as in PMID 18788725; conditions: 100 µM; ASP as substrate; cited from earlier work
OCT2 [2] = tested on: OCT2; parameters: method as in PMID 16263091; conditions: stably transfected HEK293 cells; read-out: IC50 of [3H]MPP+ uptake, OCT2; cited from earlier work
[3] = Thai patients with falciparum malaria; cited from earlier work
[4] = adult patients with uncomplicated falciparum malaria; (geometric) mean or median; cited from earlier work
OCT2 [5] = tested on: OCT2; parameters: method as in PMID 21599003; conditions: 20 µM; ASP as substrate; cited from earlier work
[6] = Maximum plasma concentration from in vivo pharmacokinetic studies after therapeutic dosing; conditions: human, the literature Cmax (ng/mL) of Table 2 expressed in µM
Text: As Cmax the (geometric) mean or median maximum plasma concentrations obtained from previous in vivo pharmacokinetic studies after therapeutic dosing was used.

OCT1 [7] = tested on: OCT1; parameters: method as in PMID 16263091; conditions: stably transfected HEK293 cells; read-out: IC50 of [3H]MPP+ uptake, OCT1; cited from earlier work

Question: With C=C[C@H]1C[N@@]2CC[C@H]1C[C@H]2[C@H](O)c1ccnc2ccc(OC)cc12 [Quinine, quinine] as the compound, how does the “Inhibition of OCT1” value (OCT1 [1]) read?
Answer: 60%

Question: What about the IC50 (OCT2 [2]) of the same compound?
Answer: 23 µM

Question: And the Unbound fraction [3]?
Answer: 0.11^g [36]

Question: And the Cmax [4]?
Answer: 11430^f [50] ng/mL

Question: What about the “Inhibition of OCT2” value (OCT2 [5]) of the same compound?
Answer: 72%

Question: And the Cmax [6]?
Answer: 35 µM

Question: And the IC50 (OCT1 [7])?
Answer: 13 µM
